Measured values as given in the supplement of paper PMC11061612.

How the values were obtained:
Experiment in all cases: Bliss excess, mean over the matrix (fraction); higher = more synergy
[1] = tested on: KU-19-19 (Bladder Carcinoma)
Procedure, shortened: (§1)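 Cell lines grown in DMEM/F12 or RPMI with 10% FBS were plated in 1536-well plates and held 24 hours at 37°C, 5% CO2 before 72 hours of exposure to two-drug dose matrices, with DMSO typically at 0.2%. CellTiter-Glo 2.0 luminescence gave viability, which was converted to inhibition. Vehicle wells were set to 0 and blank wells to 1. Combination Emax is the second-highest inhibition in the matrix, and Bliss excess is the observed combination effect minus the expected EA + EB − EA·EB, where EA and EB are the single-agent effects.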

[2] = tested on: U-87-MG (Glioblastoma)
Procedure, shortened: as §1

[3] = tested on: OCUB-M (Breast Carcinoma)
Procedure, shortened: as §1

[4] = tested on: SCC-3 (B-Cell Non-Hodgkin's Lymphoma)
Procedure, shortened: as §1

[5] = tested on: EW-3 (Ewing's Sarcoma)
Procedure, shortened: as §1

[6] = tested on: KP-2 (Pancreatic Carcinoma)
Procedure, shortened: as §1

[7] = tested on: DG-75 (Burkitt's Lymphoma)
Procedure, shortened: as §1

[8] = tested on: KLE (Endometrial Carcinoma)
Procedure, shortened: as §1

[9] = tested on: TGBC11TKB (Gastric Carcinoma)
Procedure, shortened: as §1

[10] = tested on: HuP-T3 (Pancreatic Carcinoma)
Procedure, shortened: as §1

[11] = tested on: HC-1 (Other Blood Carcinomas)
Procedure, shortened: as §1

[12] = tested on: JHH-7 (Hepatocellular Carcinoma)
Procedure, shortened: as §1

[13] = tested on: A704 (Kidney Carcinoma)
Procedure, shortened: as §1

[14] = tested on: MFE-319 (Endometrial Carcinoma)
Procedure, shortened: as §1

Row | Compound | Bliss excess [1] | Bliss excess [2] | Bliss excess [3] | Bliss excess [4] | Bliss excess [5] | Bliss excess [6] | Bliss excess [7] | Bliss excess [8] | Bliss excess [9] | Bliss excess [10] | Bliss excess [11] | Bliss excess [12] | Bliss excess [13] | Bliss excess [14]
1 | NC1(C(=O)N[C@@H](CCO)c2ccc(Cl)cc2)CCN(c2ncnc3[nH]ccc23)CC1 [Capivasertib] + CC(C)n1c(=O)n(C)c2cnc3cc(F)c(-c4ccc(OCCCN5CCCCC5)nc4)cc3c21 [AZD1390] (first compound max 10 µM, 7x7, partner max 0.3 µM) | -0.0939 | -0.0703 | -0.0424 | -0.0169 | -0.0908 | -0.0612 | -0.0006 | -0.0455 | -0.0598 | -0.0444 | -0.0706 | -0.0584 | -0.0703 | -0.0921
2 | CN(CCO)CC[C@H](CSc1ccccc1)Nc1ccc(S(=O)(=O)NC(=O)c2ccc(N3CCC([C@@H](O)c4ccccc4-c4ccc(Cl)cc4)CC3)cc2)cc1S(=O)(=O)C(F)(F)F [AZD4320] + C=CCn1c(=O)c2cnc(Nc3ccc(N4CCN(C)CC4)cc3)nc2n1-c1cccc(C(C)(C)O)n1 [AZD1775] (first compound max 1 µM, partner max 1 µM) | -0.018 | -0.0637 | 0.075 | 0.0329 | 0.11 | 0.0889 | -0.0232 | 0.0083 | 0.0443 | -0.0081 | 0.206 | 0.0362 | 0.0138 | 0.0537
3 | CN(CCO)CC[C@H](CSc1ccccc1)Nc1ccc(S(=O)(=O)NC(=O)c2ccc(N3CCC([C@@H](O)c4ccccc4-c4ccc(Cl)cc4)CC3)cc2)cc1S(=O)(=O)C(F)(F)F [AZD4320] + Cc1cc2ncnn2cc1Nc1ncc2c(n1)n(C1CCOCC1)c(=O)n2C [AZD7648] (first compound max 1 µM, 7x7, partner max 10 µM) | -0.0359 | -0.0503 | 0.0104 | -0.0018 | 0.015 | -0.0338 | 0.0021 | -0.0116 | 0.0075 | -0.0362 | 0.0352 | -0.0253 | -0.0394 | -0.0557
4 | Cn1cnc2c(F)c(Nc3ccc(Br)cc3Cl)c(C(=O)NOCCO)cc21 [Selumetinib] + CC(C)n1c(=O)n(C)c2cnc3cc(F)c(-c4ccc(OCCCN5CCCCC5)nc4)cc3c21 [AZD1390] (first compound max 10 µM, 7x7, partner max 0.3 µM) | -0.0257 | -0.027 | -0.0332 | 0.0273 | -0.0455 | -0.008 | -0.024 | -0.0057 | -0.0167 | -0.0046 | -0.0327 | -0.0517 | -0.0225 | -0.112
5 | CC(=O)c1c(C)c2cnc(Nc3ccc(N4CCNCC4)cn3)nc2n(C2CCCC2)c1=O [Palbociclib] + Cn1cnc2c(F)c(Nc3ccc(Br)cc3Cl)c(C(=O)NOCCO)cc21 [Selumetinib] (first compound max 10 µM, 7x7, partner max 10 µM) | -0.0054 | -0.0929 | -0.0413 | 0.0581 | 0.0301 | -0.0153 | 0.028 | 0.0167 | 0.0327 | -0.014 | -0.0354 | -0.0039 | -0.0874 | 0.0042
6 | Cc1c2c(nn1C)CSCc1cc(n(C)n1)CSc1cc(c3ccccc3c1)OCCCc1c(C(=O)O)n(C)c3c-2c(Cl)ccc13 [AZD5991] + CN(C)CCCOc1ccc(-c2ccc3ncc4c(c3c2)n(C2CCOCC2)c(=O)n4C)cn1 [AZD0156] (first compound max 1 µM, 7x7, partner max 1 µM) | 0.0263 | -0.0477 | 0.0178 | 0.0027 | -0.0499 | -0.0125 | -0.0286 | -0.0504 | 0.007 | -0.0479 | -0.0479 | -0.0091 | -0.0475 | 0.0347
7 | CC1(C)CCC(CN2CCN(c3ccc(C(=O)NS(=O)(=O)c4ccc(NCC5CCOCC5)c([N+](=O)[O-])c4)c(Oc4cnc5[nH]ccc5c4)c3)CC2)=C(c2ccc(Cl)cc2)C1 [Venetoclax] + Cc1cc2ncnn2cc1Nc1ncc2c(n1)n(C1CCOCC1)c(=O)n2C [AZD7648] (first compound max 1 µM, 7x7, partner max 10 µM) | -0.0571 | -0.0832 | -0.0149 | -0.0016 | 0.0149 | -0.0577 | -0.0157 | -0.0432 | -0.0592 | -0.0331 | -0.02 | -0.0446 | -0.0215 | -0.0442
8 | COc1nnc2ccc(N3CCC(c4ccc(OCCN5CCN(C)C(=O)[C@H]5C)cc4)CC3)nn12 [AZD5153] + CC1(C)CCC(CN2CCN(c3ccc(C(=O)NS(=O)(=O)c4ccc(NCC5CCOCC5)c([N+](=O)[O-])c4)c(Oc4cnc5[nH]ccc5c4)c3)CC2)=C(c2ccc(Cl)cc2)C1 [Venetoclax] (first compound max 1 µM, 7x7, partner max 1 µM) | -0.0567 | -0.0343 | -0.0299 | -0.0213 | -0.0801 | -0.0381 | -0.063 | -0.0384 | -0.0783 | -0.102 | 0.0089 | -0.0676 | -0.0016 | -0.124
9 | Cc1c2c(nn1C)CSCc1cc(n(C)n1)CSc1cc(c3ccccc3c1)OCCCc1c(C(=O)O)n(C)c3c-2c(Cl)ccc13 [AZD5991] + CCN(CCO)CCCOc1ccc2c(Nc3cc(CC(=O)Nc4cccc(F)c4)[nH]n3)ncnc2c1 [AZD2811] (first compound max 1 µM, 7x7, partner max 1 µM) | 0.0376 | 0.0065 | -0.0116 | 0.0604 | 0.05 | 0.0395 | 0.0704 | -0.0923 | 0.0266 | -0.019 | 0.13 | 0.0144 | -0.0462 | 0.0215
10 | CN(CCO)CC[C@H](CSc1ccccc1)Nc1ccc(S(=O)(=O)NC(=O)c2ccc(N3CCC([C@@H](O)c4ccccc4-c4ccc(Cl)cc4)CC3)cc2)cc1S(=O)(=O)C(F)(F)F [AZD4320] + CN(C)CCCOc1ccc(-c2ccc3ncc4c(c3c2)n(C2CCOCC2)c(=O)n4C)cn1 [AZD0156] (first compound max 1 µM, 7x7, partner max 1 µM) | -0.0364 | -0.0331 | 0.0044 | 0.0226 | 0.0012 | -0.0444 | -0.0183 | -0.0824 | -0.0242 | -0.0429 | -0.0813 | -0.0408 | -0.0411 | -0.0009
11 | CN(CCO)CC[C@H](CSc1ccccc1)Nc1ccc(S(=O)(=O)NC(=O)c2ccc(N3CCC([C@@H](O)c4ccccc4-c4ccc(Cl)cc4)CC3)cc2)cc1S(=O)(=O)C(F)(F)F [AZD4320] + Cn1cnc2c(F)c(Nc3ccc(Br)cc3Cl)c(C(=O)NOCCO)cc21 [Selumetinib] (first compound max 1 µM, 7x7, partner max 3 µM) | 0.0193 | -0.0117 | 0.0206 | 0.0222 | -0.0118 | 0.0496 | -0.0512 | 0.0087 | 0.0843 | -0.0166 | 0.0026 | -0.0214 | -0.075 | 0.0645
12 | CS(=O)(=O)CCNCc1ccc(-c2ccc3ncnc(Nc4ccc(OCc5cccc(F)c5)c(Cl)c4)c3c2)o1 [Lapatinib] + C[C@@H](Oc1cc(-c2cnn(C3CCNCC3)c2)cnc1N)c1c(Cl)ccc(F)c1Cl [Crizotinib] (first compound max 10 µM, 7x7, partner max 10 µM) | -0.034 | -0.0302 | -0.0465 | 0.0226 | -0.0505 | -0.0353 | 0.0033 | -0.0215 | -0.027 | -0.0563 | -0.0124 | -0.0055 | -0.122 | -0.0205
13 | CC1(C)CCC(CN2CCN(c3ccc(C(=O)NS(=O)(=O)c4ccc(NCC5CCOCC5)c([N+](=O)[O-])c4)c(Oc4cnc5[nH]ccc5c4)c3)CC2)=C(c2ccc(Cl)cc2)C1 [Venetoclax] + C1CN(CCC1(C(=O)N[C@@H](CCO)C2=CC=C(C=C2)Cl)N)C3=NC=NC4=C3C=CN4 [Capivasertib] (first compound max 1 µM, 7x7, partner max 3 µM) | -0.0465 | -0.0214 | -0.0222 | -0.0335 | 0.0001 | -0.0586 | -0.0146 | -0.106 | -0.0374 | -0.0387 | 0.0217 | -0.0266 | -0.079 | -0.0414
